Assays:
[1] = test system: CD4+ T cells induced to differentiate into Th17; experiment: Differentiation and functional enhancement activity of Th17 cells (IL-17 expression); assay type: cell-based, C57BL/6J mice; conditions: 25 μM final concentration; culture for 3 days under Th17 differentiation conditions; Veh control about 35%
Text: 8-week-old C57BL/6J mice were purchased and adapted for 1 week, and then CD4+ T cells were isolated from spleens and lymph nodes. Th17 cell differentiation was induced by media containing IL-6, TGF-beta1, IL-1beta, anti-IFN-gamma, and anti-IL-4, and through culturing for 3 days, it was confirmed that about 35% of IL-17 cytokine was expressed in a Veh group, which was a control group treated with only a solvent of the compound, thereby establishing basic conditions for the differentiation of Th17 cells. Under the conditions of differentiation of Th17 cells, each substance was treated at a final concentration of 25 μM.
As a result, as may be seen in the drawings, it was confirmed that Compounds 1 to 3 increased the IL-17 cytokine expression by 70%, 63%, and 62%, respectively, and through this, it was confirmed that the three compounds were able to improve the differentiation and function of Th17 cells.

[2] = test system: CD4+ T cells induced to differentiate into Treg; experiment: Differentiation and function of Treg cells (Foxp3 expression); assay type: cell-based, C57BL/6J mice; conditions: 25 μM final concentration; culture for 3 days in medium containing IL-2 and TGF-beta1; control about 19%
Method: • 8-week-old C57BL/6J mice were purchased and adapted for 1 week, and then CD4+ T cells were isolated from spleens and lymph nodes. Differentiation of regulatory T cells was transferred through a medium containing IL-2 and TGF-beta1, and through culture for 3 days, it was confirmed that about 19% of a Foxp3 transcription factor was expressed in the control group. Each substance was treated at a final concentration of 25 μM.

Row | Structure (SMILES) | increased the IL-17 cytokine expression [1] | reduced the Foxp3 transcription factor expression [2]
1 | COc1cc(/C=C/C(=O)OC[C@H]2O[C@@H](OCCc3ccc(O)c(OC)c3)[C@H](O)[C@@H](O[C@@H]3O[C@H](CO)[C@@H](O)[C@H](O)[C@H]3O[C@@H]3O[C@H](CO)[C@@H](O)[C@H](O)[C@H]3O)[C@@H]2O)ccc1O [Compound 3, veroninakaioside H] | 62% | 6.6%
2 | CO[C@@H]1C[C@H]2[C@H](OC(=O)c3ccc(O)c(O)c3)[C@@H]3O[C@]3(CO)[C@H]2C(O[C@@H]2O[C@H](CO)[C@@H](O)[C@H](O)[C@H]2O)O1 (stereo partly drawn) [Compound 1, veroninakaioside G] | 70% | 4.4%
3 | COc1ccc(CCO[C@@H]2O[C@H](CO)[C@@H](OC(=O)/C=C/c3ccc(O)c(OC)c3)[C@H](O[C@@H]3O[C@H](CO)[C@@H](O)[C@H](O)[C@H]3O)[C@H]2O[C@@H]2O[C@H](CO)[C@@H](O)[C@H](O)[C@H]2O)cc1O [Compound 2, chionoside I] | 63% | 8.3%

Source: patent US20240216462A1, “PHARMACEUTICAL COMPOSITION FOR ENHANCING IMMUNITY OR ANTI-CANCER ACTIVITY INCLUDING EXTRACT OF PSEUDOLYSIMACHION NAKAIANUM (OHWI) T.YAMAZ AS ACTIVE INGREDIENT” (KOREA INSTITUTE OF SCIENCE AND TECHNOLOGY, priority 2022, published 2024)
